Source: patent publication US9315490B2, “2,5-substituted pyrimidines” (Grünenthal GmbH, priority 2014, dated 2016)

molecular target: T1, human PDE4B1 (Homo sapiens, UniProt Q07343); experiment: cAMP HTRF assay to determine the activity of hPDE4B1; assay type: biochemical; details: inhibition of PDE4B at a test concentration of 1 μM
T1 construct: host or cells: Sf9 cells
Method: Biological Testing cAMP HTRF® Assay to Determine the Activity of hPDE4B1
The inhibiting effect of the compounds on the enzyme activity of human PDE4B1 was measured by the quantification of 5′-adenosine monophosphate (5′-AMP), which is formed from 3′,5′-cyclic adenosine monophosphate (cAMP). Human recombinant enzyme, expressed in Sf9 cells, and the HTRF (homogeneous time-resolved fluorescence) detection method were used in the assay.
The test compound or water (control) was mixed with the human recombinant PDE4B1 enzyme (4.8 U) in a buffer consisting of 44.4 mM tris-HCl, 5.28 mM MgCl2, 2.64 mM DTT and 0.044% Tween 20 (pH 7.8). After adding the cAMP enzyme substrate (final concentration 40 nM), the mixture was incubated for 30 minutes at room temperature. Then a fluorescence acceptor (Dye2 marked with cAMP), a fluorescence donor (anti-cAMP antibody marked with a europium cryptate) and the non-specific phosphodiesterase inhibitor IBMX (3-isobutyl-1-methylxanthine; final concentration 1 mM) were added. After 60 minutes the fluorescence transfer, which correlates with the amount of remaining cAMP, was measured with a microplate reader (Rubystar, BMG) at λex=337 nm, λem=620 nm and λem=665 nm. The enzyme activity was calculated from the quotient formed from the measured signal at 665 nm and that at 620 nm. The result was expressed as the percentage inhibition of enzyme activity of the control (without PDE4 inhibitor). The enzyme was omitted for measurement of the basal control. IC50 values (IC50=concentration causing a half-maximal inhibition of control specific activity) were derived from dose response measurements with eight different concentrations (n=2; N=1-3).
Literature: N. Saldou et al., Comparison of recombinant human PDE4 isoforms: interaction with substrate and inhibitors, Cell. Signal. Vol. 10, No. 6, 427-440, 1998

T1 sequence (Q07343 whole entry): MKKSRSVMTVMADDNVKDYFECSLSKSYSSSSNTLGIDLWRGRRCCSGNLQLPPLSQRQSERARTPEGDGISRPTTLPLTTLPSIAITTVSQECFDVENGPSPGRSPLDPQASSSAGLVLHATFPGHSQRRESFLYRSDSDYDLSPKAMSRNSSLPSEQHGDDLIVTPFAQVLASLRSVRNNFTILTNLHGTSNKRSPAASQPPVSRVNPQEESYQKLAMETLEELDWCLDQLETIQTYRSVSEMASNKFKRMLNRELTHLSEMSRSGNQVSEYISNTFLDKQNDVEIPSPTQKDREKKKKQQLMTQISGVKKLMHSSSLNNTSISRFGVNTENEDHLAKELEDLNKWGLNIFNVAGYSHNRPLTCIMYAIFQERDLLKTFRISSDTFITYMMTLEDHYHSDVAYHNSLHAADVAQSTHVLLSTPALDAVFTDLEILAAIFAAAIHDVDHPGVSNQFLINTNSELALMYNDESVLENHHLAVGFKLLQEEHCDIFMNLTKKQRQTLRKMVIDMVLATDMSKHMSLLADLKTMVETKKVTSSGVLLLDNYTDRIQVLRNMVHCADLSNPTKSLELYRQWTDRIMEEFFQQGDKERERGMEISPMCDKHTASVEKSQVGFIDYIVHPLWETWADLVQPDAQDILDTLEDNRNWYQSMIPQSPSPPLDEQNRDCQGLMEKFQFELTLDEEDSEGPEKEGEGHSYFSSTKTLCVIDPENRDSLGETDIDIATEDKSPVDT

SMILES	inhibition at 1 µM [%]
CNC(=O)c1ccc2c([S+](C)[O-])cn(-c3ncc(-c4ccccc4F)cn3)c2c1 (stereo not drawn) [Example 61, 1-(5-(2-Fluorophenyl)pyrimidin-2-yl)-N-methyl-3-(methylsulfinyl)-1H-indole-6-carboxamide]	77
C[S+]([O-])c1cn(-c2ncc(-c3ccccc3F)cn2)c2cc(C(=O)NCCO)ccc12 (stereo not drawn) [Example 63, 1-(5-(2-Fluorophenyl)pyrimidin-2-yl)-N-(2-hydroxyethyl)-3-(methylsulfinyl)-1H-indole-6-carboxamide]	37
CN(CCO)C(=O)c1ccc2c([S+](C)[O-])cn(-c3ncc(-c4ccccc4F)cn3)c2c1 (stereo not drawn) [Example 64, 1-(5-(2-Fluorophenyl)pyrimidin-2-yl)-N-(2-hydroxyethyl)-N-methyl-3-(methylsulfinyl)-1H-indole-6-carboxamide]	67
COCCN(C)C(=O)c1ccc2c([S+](C)[O-])cn(-c3ncc(-c4ccccc4F)cn3)c2c1 (stereo not drawn) [Example 65, 1-(5-(2-Fluorophenyl)pyrimidin-2-yl)-N-(2-methoxyethyl)-N-methyl-3-(methylsulfinyl)-1H-indole-6-carboxamide]	40
C[S+]([O-])c1cn(-c2ncc(-c3ccccc3F)cn2)c2cc(C(=O)N3CC[C@@H](O)C3)ccc12 (stereo partly drawn) [Example 66, (1-(5-(2-Fluorophenyl)pyrimidin-2-yl)-3-(methylsulfinyl)-1H-indol-6-yl)((R)-3-hydroxypyrrolidin-1-yl)methanone]	97
C[S+]([O-])c1cn(-c2ncc(-c3ccccc3F)cn2)c2cc(C(=O)N3CC[C@H](O)C3)ccc12 (stereo partly drawn) [Example 67, (1-(5-(2-Fluorophenyl)pyrimidin-2-yl)-3-(methylsulfinyl)-1H-indol-6-yl)((S)-3-hydroxypyrrolidin-1-yl)methanone]	47
C[S+]([O-])c1cn(-c2ncc(-c3ccccc3F)cn2)c2cc(C(=O)N3CC[C@@H](N)C3)ccc12 (stereo partly drawn) [Example 68]	108
CS(=O)(=O)c1cn(-c2ncc(-c3ccccc3F)cn2)c2cc(C(=O)N3CC[C@@H](N)C3)ccc12 [Example 69, (R)-(3-Aminopyrrolidin-1-yl)(1-(5-(2-fluorophenyl)pyrimidin-2-yl)-3-(methylsulfonyl)-1H-indol-6-yl)methanone]	95
C[S+]([O-])c1cn(-c2ncc(-c3ccccc3)cn2)c2cc(C(=O)N3CCNC(=O)C3)ccc12 (stereo not drawn) [Example 70, 4-(3-(Methylsulfinyl)-1-(5-phenylpyrimidin-2-yl)-1H-indole-6-carbonyl)piperazin-2-one]	84
COC[C@@H]1CCCN1C(=O)c1ccc2c([S+](C)[O-])cn(-c3ncc(-c4ccccc4F)cn3)c2c1 (stereo partly drawn) [Example 71]	63
C[S+]([O-])c1cn(-c2ncc(-c3ccccc3F)cn2)c2cc(C(=O)N3CCC(O)CC3)ccc12 (stereo not drawn) [Example 73, (1-(5-(2-Fluorophenyl)pyrimidin-2-yl)-3-(methylsulfinyl)-1H-indol-6-yl)(4-hydroxypiperidin-1-yl)methanone]	78
C[S+]([O-])c1cn(-c2ncc(-c3ccccc3F)cn2)c2cc(C(=O)NC3COC3)ccc12 (stereo not drawn) [Example 75, 1-(5-(2-Fluorophenyl)pyrimidin-2-yl)-3-(methylsulfinyl)-N-(oxetan-3-yl)-1H-indole-6-carboxamide]	47
CN1CCN(C(=O)c2ccc3c([S+](C)[O-])cn(-c4ncc(-c5ccccc5F)cn4)c3c2)CC1=O (stereo not drawn) [Example 76, 4-(1-(5-(2-Fluorophenyl)pyrimidin-2-yl)-3-(methylsulfinyl)-1H-indole-6-carbonyl)-1-methylpiperazin-2-one]	58
COC[C@H]1CCCN1C(=O)c1ccc2c([S+](C)[O-])cn(-c3ncc(-c4ccccc4F)cn3)c2c1 (stereo partly drawn) [Example 77, (1-(5-(2-Fluorophenyl)pyrimidin-2-yl)-3-(methylsulfinyl)-1H-indol-6-yl)((R)-2-(methoxymethyl)pyrrolidin-1-yl)methanone]	67
C[S+]([O-])c1cn(-c2ncc(-c3ccccc3F)cn2)c2cc(C(=O)N3CCC[C@@H]3CO)ccc12 (stereo partly drawn) [Example 78, (1-(5-(2-Fluorophenyl)pyrimidin-2-yl)-3-(methylsulfinyl)-1H-indol-6-yl)((R)-2-(hydroxymethyl)pyrrolidin-1-yl)methanone]	70
C[S+]([O-])c1cn(-c2ncc(-c3ccccc3F)cn2)c2cc(C(=O)N3CCC[C@H]3CO)ccc12 (stereo partly drawn) [Example 79, (1-(5-(2-Fluorophenyl)pyrimidin-2-yl)-3-(methylsulfinyl)-1H-indol-6-yl)((S)-2-(hydroxymethyl)pyrrolidin-1-yl)methanone]	103
C[S+]([O-])c1cn(-c2ncc(-c3ccccc3F)cn2)c2cc(C(=O)N3CCC[C@@H](O)C3)ccc12 (stereo partly drawn) [Example 80, (1-(5-(2-Fluorophenyl)pyrimidin-2-yl)-3-(methylsulfinyl)-1H-indol-6-yl)((R)-3-hydroxypiperidin-1-yl)methanone]	96
C[S+]([O-])c1cn(-c2ncc(-c3ccccc3F)cn2)c2cc(C(=O)N3CCC[C@H](O)C3)ccc12 (stereo partly drawn) [Example 81, (1-(5-(2-Fluorophenyl)pyrimidin-2-yl)-3-(methylsulfinyl)-1H-indol-6-yl)((S)-3-hydroxypiperidin-1-yl)methanone]	63
CO[C@@H]1CCN(C(=O)c2ccc3c([S+](C)[O-])cn(-c4ncc(-c5ccccc5F)cn4)c3c2)C1 (stereo partly drawn) [Example 82, (1-(5-(2-Fluorophenyl)pyrimidin-2-yl)-3-(methylsulfinyl)-1H-indol-6-yl)((R)-3-methoxypyrrolidin-1-yl)methanone]	71
C[S+]([O-])c1cn(-c2ncc(-c3ccccc3F)cn2)c2cc(C(=O)NCC3COC3)ccc12 (stereo not drawn) [Example 83, 1-(5-(2-Fluorophenyl)pyrimidin-2-yl)-3-(methylsulfinyl)-N-(oxetan-3-ylmethyl)-1H-indole-6-carboxamide]	67
C[C@@H]1CN(C(=O)c2ccc3c([S+](C)[O-])cn(-c4ncc(-c5ccccc5F)cn4)c3c2)CCO1 (stereo partly drawn) [Example 84, (1-(5-(2-Fluorophenyl)pyrimidin-2-yl)-3-(methylsulfinyl)-1H-indol-6-yl)((R)-2-methylmorpholino)methanone]	106
C[C@H]1CN(C(=O)c2ccc3c([S+](C)[O-])cn(-c4ncc(-c5ccccc5F)cn4)c3c2)CCO1 (stereo partly drawn) [Example 85, (1-(5-(2-Fluorophenyl)pyrimidin-2-yl)-3-(methylsulfinyl)-1H-indol-6-yl)((S)-2-methylmorpholino)methanone]	115
C[S+]([O-])c1cn(-c2ncc(-c3ccc(O)cc3)cn2)c2cc(C(=O)N3CCOCC3)ccc12 (stereo not drawn) [Example 86, (1-(5-(4-Hydroxyphenyl)pyrimidin-2-yl)-3-(methylsulfinyl)-1H-indol-6-yl)(morpholino)methanone]	99
Cc1cccc(-c2cnc(-n3cc(S(C)(=O)=O)c4ccc(C(=O)N5CCOCC5)cc43)nc2)c1 [Example 156, (3-(Methylsulfonyl)-1-(5-(m-tolyl)pyrimidin-2-yl)-1H-indol-6-yl)(morpholino) methanone]	58
COc1cccc(-c2cnc(-n3cc(S(C)(=O)=O)c4ccc(C(=O)N5CCOCC5)cc43)nc2)c1 [Example 159, (1-(5-(3-Methoxyphenyl)pyrimidin-2-yl)-3-(methylsulfonyl)-1H-indol-6-yl)(morpholino)methanone]	98
COc1ccc(F)c(-c2cnc(-n3cc(S(C)(=O)=O)c4ccc(C(=O)N5CCOCC5)cc43)nc2)c1 [Example 162, (1-(5-(2-Fluoro-5-methoxyphenyl)pyrimidin-2-yl)-3-(methylsulfonyl)-1H-indol-6-yl)(morpholino)methanone]	95
Cc1cccc(-c2cnc(-n3cc(S(C)(=O)=O)c4ccc(C(=O)N5CC[C@@H](N)C5)cc43)nc2)c1 [Example 167, (R)-(3-Aminopyrrolidin-1-yl)(3-(methylsulfonyl)-1-(5-(m-tolyl)pyrimidin-2-yl)-1H-indol-6-yl)methanone]	87
CC(O)CN(C)C(=O)c1ccc2c([S+](C)[O-])cn(-c3ncc(-c4ccccc4F)cn3)c2c1 (stereo not drawn) [Example 168, 1-(5-(2-Fluorophenyl)pyrimidin-2-yl)-N-(2-hydroxypropyl)-N-methyl-3-(methylsulfinyl)-1H-indole-6-carboxamide]	43

same assay, conditions: inhibition of PDE4B at a test concentration of 1 μM, 1 µM

SMILES	Inhibition in % [%]
COC1CCN(C(=O)c2ccc3c([S+](C)[O-])cn(-c4ncc(-c5ccccc5F)cn4)c3c2)CC1 (stereo not drawn) [Example 72, (1-(5-(2-Fluorophenyl)pyrimidin-2-yl)-3-(methylsulfinyl)-1H-indol-6-yl)(4-methoxypiperidin-1-yl)methanone]	33
C[S+]([O-])c1cn(-c2ncc(-c3ccccc3F)cn2)c2cc(C(=O)N3CCOC(C)(C)C3)ccc12 (stereo not drawn) [Example 74, (2,2-Dimethylmorpholino)(1-(5-(2-fluorophenyl)pyrimidin-2-yl)-3-(methylsulfinyl)-1H-indol-6-yl)methanone]	63
